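Growth conditions: 96-well plates. Treatment: test compound, 48 hours, 5 concentrations. Analysis: linear interpolation between bracketing concentrations; unreached endpoints set to highest concentration. TGI is the concentration that stops growth completely.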
Tests used:
Test in all cases: DTP human tumour cell line panel, 48 h
MDA-MB-231 breast = system: MDA-MB-231 breast
SF-295 CNS = system: SF-295 CNS
MDA-N = system: MDA-N
MDA-MB-435 = system: MDA-MB-435
NCI/ADR-RES ovarian = system: NCI/ADR-RES ovarian
SNB-75 CNS = system: SNB-75 CNS
OVCAR-4 ovarian = system: OVCAR-4 ovarian
A549 NSCLC = system: A549 NSCLC
HL-60(TB) leukemia = system: HL-60(TB) leukemia
SNB-19 CNS = system: SNB-19 CNS
ACHN renal = system: ACHN renal
MALME-3M melanoma = system: MALME-3M melanoma
SF-268 CNS = system: SF-268 CNS
786-0 renal = system: 786-0 renal
T-47D breast = system: T-47D breast
HS 578T breast = system: HS 578T breast
OVCAR-5 ovarian = system: OVCAR-5 ovarian
CAKI-1 renal = system: CAKI-1 renal
K-562 leukemia = system: K-562 leukemia
BT-549 breast = system: BT-549 breast
SR leukemia = system: SR leukemia
HCC-2998 colon = system: HCC-2998 colon
RPMI-8226 leukemia = system: RPMI-8226 leukemia
SK-OV-3 ovarian = system: SK-OV-3 ovarian
DU-145 prostate = system: DU-145 prostate
NCI-H23 lung = system: NCI-H23 lung
SK-MEL-28 melanoma = system: SK-MEL-28 melanoma
SW-620 colon = system: SW-620 colon
KM12 colon = system: KM12 colon
IGROV1 ovarian = system: IGROV1 ovarian
UACC-257 melanoma = system: UACC-257 melanoma
SK-MEL-5 melanoma = system: SK-MEL-5 melanoma
NCI-H226 lung = system: NCI-H226 lung
HT29 colon = system: HT29 colon
SK-MEL-2 melanoma = system: SK-MEL-2 melanoma
UO-31 renal = system: UO-31 renal
HOP-92 NSCLC = system: HOP-92 NSCLC
COLO 205 colon = system: COLO 205 colon
A498 renal = system: A498 renal
UACC-62 melanoma = system: UACC-62 melanoma
MCF7 breast = system: MCF7 breast
NCI-H460 lung = system: NCI-H460 lung
LOX IMVI melanoma = system: LOX IMVI melanoma
NCI-H522 lung = system: NCI-H522 lung
HCT-116 colon = system: HCT-116 colon
RXF 393 renal = system: RXF 393 renal
OVCAR-8 ovarian = system: OVCAR-8 ovarian
OVCAR-3 ovarian = system: OVCAR-3 ovarian
PC-3 prostate = system: PC-3 prostate
TK-10 renal = system: TK-10 renal
HOP-62 NSCLC = system: HOP-62 NSCLC
SN12C renal = system: SN12C renal
EKVX NSCLC = system: EKVX NSCLC
HCT-15 colon = system: HCT-15 colon
CCRF-CEM leukemia = system: CCRF-CEM leukemia
M14 melanoma = system: M14 melanoma
SF-539 CNS = system: SF-539 CNS
MOLT-4 leukemia = system: MOLT-4 leukemia
U251 CNS = system: U251 CNS

NC(=O)C(Nc1ccc(Cl)cc1)c1cc2cc(Br)ccc2nc1Cl (stereo unspecified)
TGI (MDA-MB-231 breast): > 50 µM | TGI (SF-295 CNS): > 50 µM | TGI (MDA-N): > 50 µM | TGI (MDA-MB-435): > 50 µM | TGI (NCI/ADR-RES ovarian): > 50 µM | TGI (SNB-75 CNS): > 50 µM | TGI (OVCAR-4 ovarian): > 50 µM | TGI (A549 NSCLC): > 50 µM | TGI (HL-60(TB) leukemia): > 50 µM | TGI (SNB-19 CNS): > 50 µM | TGI (ACHN renal): > 50 µM | TGI (MALME-3M melanoma): > 50 µM | TGI (SF-268 CNS): > 50 µM | TGI (786-0 renal): > 50 µM | TGI (T-47D breast): > 50 µM | TGI (HS 578T breast): > 50 µM | TGI (OVCAR-5 ovarian): > 50 µM | TGI (CAKI-1 renal): > 50 µM | TGI (K-562 leukemia): > 50 µM | TGI (BT-549 breast): > 50 µM | TGI (SR leukemia): > 50 µM | TGI (HCC-2998 colon): > 50 µM | TGI (RPMI-8226 leukemia): > 50 µM | TGI (SK-OV-3 ovarian): > 50 µM | TGI (DU-145 prostate): > 50 µM | TGI (NCI-H23 lung): > 50 µM | TGI (SK-MEL-28 melanoma): > 50 µM | TGI (SW-620 colon): > 50 µM | TGI (KM12 colon): > 50 µM | TGI (IGROV1 ovarian): > 50 µM | TGI (UACC-257 melanoma): > 50 µM | TGI (SK-MEL-5 melanoma): > 50 µM | TGI (NCI-H226 lung): > 50 µM | TGI (HT29 colon): > 50 µM | TGI (SK-MEL-2 melanoma): > 50 µM | TGI (UO-31 renal): > 50 µM | TGI (HOP-92 NSCLC): > 50 µM | TGI (COLO 205 colon): > 50 µM | TGI (A498 renal): > 50 µM | TGI (UACC-62 melanoma): > 50 µM | TGI (MCF7 breast): > 50 µM | TGI (NCI-H460 lung): > 50 µM | TGI (LOX IMVI melanoma): > 50 µM | TGI (NCI-H522 lung): > 50 µM | TGI (HCT-116 colon): > 50 µM | TGI (RXF 393 renal): > 50 µM | TGI (OVCAR-8 ovarian): > 50 µM | TGI (OVCAR-3 ovarian): > 50 µM | TGI (PC-3 prostate): > 50 µM | TGI (TK-10 renal): 47.7 µM | TGI (HOP-62 NSCLC): > 50 µM | TGI (SN12C renal): > 50 µM | TGI (EKVX NSCLC): > 50 µM | TGI (HCT-15 colon): > 50 µM | TGI (CCRF-CEM leukemia): > 50 µM | TGI (M14 melanoma): > 50 µM | TGI (SF-539 CNS): > 50 µM | TGI (MOLT-4 leukemia): > 50 µM

CC(=O)Nc1ccc2cc3[nH]c4cc(NC(C)=O)ccc4c3nc2c1
TGI (MDA-MB-231 breast): > 100 µM | TGI (SF-295 CNS): > 100 µM | TGI (MDA-N): > 100 µM | TGI (MDA-MB-435): > 100 µM | TGI (NCI/ADR-RES ovarian): > 100 µM | TGI (SNB-75 CNS): > 100 µM | TGI (OVCAR-4 ovarian): > 100 µM | TGI (A549 NSCLC): > 100 µM | TGI (SNB-19 CNS): > 100 µM | TGI (ACHN renal): > 100 µM | TGI (MALME-3M melanoma): > 100 µM | TGI (SF-268 CNS): > 100 µM | TGI (786-0 renal): > 100 µM | TGI (T-47D breast): > 100 µM | TGI (HS 578T breast): > 100 µM | TGI (OVCAR-5 ovarian): > 100 µM | TGI (CAKI-1 renal): > 100 µM | TGI (K-562 leukemia): > 100 µM | TGI (BT-549 breast): > 100 µM | TGI (SR leukemia): > 100 µM | TGI (HCC-2998 colon): > 100 µM | TGI (RPMI-8226 leukemia): > 100 µM | TGI (SK-OV-3 ovarian): > 100 µM | TGI (DU-145 prostate): > 100 µM | TGI (NCI-H23 lung): > 100 µM | TGI (SK-MEL-28 melanoma): > 100 µM | TGI (SW-620 colon): > 100 µM | TGI (KM12 colon): > 100 µM | TGI (IGROV1 ovarian): > 100 µM | TGI (UACC-257 melanoma): > 100 µM | TGI (SK-MEL-5 melanoma): > 100 µM | TGI (NCI-H226 lung): > 100 µM | TGI (HT29 colon): > 100 µM | TGI (SK-MEL-2 melanoma): > 100 µM | TGI (UO-31 renal): > 100 µM | TGI (HOP-92 NSCLC): > 100 µM | TGI (COLO 205 colon): > 100 µM | TGI (A498 renal): > 100 µM | TGI (U251 CNS): > 100 µM | TGI (UACC-62 melanoma): > 100 µM | TGI (MCF7 breast): > 100 µM | TGI (NCI-H460 lung): > 100 µM | TGI (LOX IMVI melanoma): > 100 µM | TGI (NCI-H522 lung): > 100 µM | TGI (HCT-116 colon): > 100 µM | TGI (RXF 393 renal): > 100 µM | TGI (OVCAR-8 ovarian): > 100 µM | TGI (OVCAR-3 ovarian): > 100 µM | TGI (PC-3 prostate): > 100 µM | TGI (TK-10 renal): > 100 µM | TGI (HOP-62 NSCLC): > 100 µM | TGI (SN12C renal): > 100 µM | TGI (EKVX NSCLC): > 100 µM | TGI (HCT-15 colon): > 100 µM | TGI (CCRF-CEM leukemia): > 100 µM | TGI (M14 melanoma): > 100 µM | TGI (SF-539 CNS): > 100 µM | TGI (MOLT-4 leukemia): 77.3 µM

Source: PubChem BioAssay (NCI)
